Experimental data reported in patent publication US11447511B2, “Dioxolane analogues of uridine for the treatment of cancer” (MEDIVIR AB, priority 2014, dated 2022).

Legend:
HepG2 = test: Cell cytotoxicity assay, HEPG2; type: cell-based; conditions: HepG2 cells, 5 days at 37° C., XTT dye
Procedure: (§1) Cells were seeded 24 hours prior to compound addition. Each test compound (serially diluted from 100 μM) was added to Huh7 (1.5×10^4 cells/well) or HepG2 (1.5×10^4 cells/well), and allowed to incubate for 5 days at 37° C. A medium only control was used to determine the minimum absorbance value and an untreated cell value. At the end of the growth period, XTT dye from Polysciences Europe GmbH was added to each well. The absorbance at 450 nm with a reference wavelength of 600 nm was read with a Sunrise (Tecan) using the medium only control wells as blanks. The 50% inhibition value (CC50) was determined by comparing the degree of inhibition (compared to cell control) plotted against compound concentration. Results from the dilution series were fitted to a sigmoidal dose-response curve.
(§2) Compounds of the invention were evaluated in these assays to assess the stability in human intestinal S9 fraction (HIS9) and human liver S9 fraction (HLS9), and for Cell Cytotoxicity in HUH7, HEP3B and HEPG2 cells.

[1] = Stability in human intestinal S9 fraction (HIS9); type: in vitro ADME; conditions: human intestinal S9 0.4 mg protein/mL, 5 μM test compound, 37° C.; for microsomal CLint at 5 μM: intestinal S9 fraction, pH 7.4
Procedure: (§3) Stability in Human Intestinal S9 Fraction (HIS9) and in Human Liver S9 Fraction (HLS9),
(§4) Stock solutions of each test compound (10 mM) were prepared in DMSO and stored at −20° C. Prior to the start of the experiment, the test compounds were diluted to 500 μM in 50% acetonitrile in water. The reaction mixture was prepared in a total volume of 250 μL containing 5 mM MgC2, 1 mM NADPH and 5 μM test compound in 50 mM potassium phosphate buffer (pH 7.4). The reaction was initiated by addition of human liver or intestinal S9 fraction with a final concentration of 0.4 mg protein/mL (Xeno Tech). The reaction mixture was incubated on an orbital shaker at 37° C. At the desired time points (0, 10, 30 and 60 minutes) aliquots of 50 μL were taken and the reaction was stopped by mixing with 150 μL acetonitrile containing internal standard. Standard solutions of each test compound were prepared from the 500 μM solution by diluting the solution to a final concentration of 5 μM in boiled human S9 (0.4 mg protein/mL), 5 mM MgCl2 and 50 mM potassium phosphate buffer (pH 7.4). The standards and samples were kept on ice for 30 min then centrifuged at 3 000 g for 20 minutes at 10° C., there after 10 μL of supernatant was mixed with 200 μL 50% acetonitrile in water. 0.5 μM of each test compound in 50% acetonitrile in water was injected into the LC/MS-MS to determine the daughter ion, declustring potential (DP), collision energy (CE) and collision cell exit potential (CXP) in order to develop a LC/MS-MS method. The compounds were separated using a C18 column with a QTRAP5500 system. The mobile phase consisted of solvent A (98% water, 2% acetonitrile, 0.1% acetic acid or 10 mM ammonium acetate) and solvent B (80% acetonitrile, 20% water, 0.1% acetic acid or 10 mM ammonium acetate). Elution of the compounds was performed by using a gradient of solvent B from 0% to 100%. 5 μL of standard points and samples were injected for analysis with QTRAP5500.
(§5) The amount of parent compound was determined on the basis of the peak area for each time point compared to standard which was set to 5 μM. Intrinsic clearance (CLint) and half-life (t1/2) were determined from the disappearance curves of the test compound using Excel software.

Huh7 = test: Cell cytotoxicity assay, HUH7; type: cell-based; conditions: Huh7 cells, 5 days at 37° C., XTT dye
Procedure: as §1, §2

[2] = Stability in human liver S9 fraction (HLS9); type: in vitro ADME; conditions: human liver S9 0.4 mg protein/mL, 5 μM test compound, 37° C.; for microsomal CLint at 5 μM: liver S9 fraction, pH 7.4
Procedure: as §3, §4, §5

| CLint Intestinal S9 [1] | CLint Liver S9 [2] | Compound | CC50 (HepG2) | CC50 (Huh7) | microsomal CLint at 5 μM [1] | microsomal CLint at 5 μM [2] |
| --- | --- | --- | --- | --- | --- | --- |
| 147 µL/min/mg | 148 µL/min/mg | Nc1ccn([C@@H]2CO[C@H](COP(=O)(N[C@@H](Cc3ccccc3)C(=O)OC3CCCCC3)Oc3ccc(Br)cc3)O2)c(=O)n1 (single isomer, unassigned; dia-1) [7 dia-1] | 240 nM | 1020 nM | – | – |
| 300 µL/min/mg | 97 µL/min/mg | Nc1ccn([C@@H]2CO[C@H](COP(=O)(N[C@@H](Cc3ccccc3)C(=O)OCc3ccccc3)Oc3cccc(C4CC4)c3)O2)c(=O)n1 (single isomer, unassigned; dia-2) [12 dia-2] | 1090 nM | 5020 nM | – | – |
| – | – | CCC[C@@H](C)OC(=O)[C@H](C)NP(=O)(OC[C@H]1OC[C@@H](n2ccc(N)nc2=O)O1)Oc1ccccc1 (single isomer, unassigned) [30 dia-2] | – | – | 11 µL/min/mg | 120 µL/min/mg |
| 10 µL/min/mg | 22 µL/min/mg | CCC(CC)OC(=O)[C@H](C)NP(=O)(OC[C@H]1OC[C@@H](n2ccc(N)nc2=O)O1)Oc1ccccc1 (single isomer, unassigned; dia-2) [21 dia-2] | 48 nM | 70 nM | – | – |
| 27 µL/min/mg | 60 µL/min/mg | Nc1ccn([C@@H]2CO[C@H](COP(=O)(N[C@@H](Cc3ccccc3)C(=O)OC3CCCCC3)Oc3ccc(Br)cc3)O2)c(=O)n1 (single isomer, unassigned; dia-2) [7 dia-2] | 58 nM | 134 nM | – | – |
| 75 µL/min/mg | 230 µL/min/mg | CC[C@@H](C)OC(=O)[C@H](C)NP(=O)(OC[C@H]1OC[C@@H](n2ccc(N)nc2=O)O1)Oc1cccc(C2CCC2)c1 (single isomer, unassigned; dia-2) [33 dia-2] | – | – | – | – |
| 30 µL/min/mg | 88 µL/min/mg | CCCC(CCC)COC(=O)[C@H](C)NP(=O)(OC[C@H]1OC[C@@H](n2ccc(N)nc2=O)O1)Oc1cccc2ccccc12 (single isomer, unassigned; dia-1) [14 dia-1] | 16 nM | 216 nM | – | – |
| 87 µL/min/mg | 167 µL/min/mg | CCC(CC)COC(=O)[C@H](C)NP(=O)(OC[C@H]1OC[C@@H](n2ccc(N)nc2=O)O1)Oc1ccccc1 (single isomer, unassigned; dia-1) [15 dia-1] | 37 nM | 25 nM | – | – |
| 59 µL/min/mg | 159 µL/min/mg | CCCC(CCC)COC(=O)[C@H](C)NP(=O)(OC[C@H]1OC[C@@H](n2ccc(N)nc2=O)O1)Oc1cccc2ccccc12 (single isomer, unassigned; dia-2) [14 dia-2] | 12 nM | 200 nM | – | – |
| 127 µL/min/mg | 94 µL/min/mg | C[C@H](NP(=O)(OC[C@H]1OC[C@@H](n2ccc(N)nc2=O)O1)Oc1cccc2ccccc12)C(=O)OCc1ccccc1 (single isomer, unassigned; dia-2) [9 dia-2] | 16 nM | 158 nM | – | – |
| 300 µL/min/mg | 182 µL/min/mg | Nc1ccn([C@@H]2CO[C@H](COP(=O)(N[C@@H](Cc3ccccc3)C(=O)OCc3ccccc3)Oc3cccc(C4CC4)c3)O2)c(=O)n1 (single isomer, unassigned; dia-1) [12 dia-1] | 481 nM | 4330 nM | – | – |
| 6 µL/min/mg | 6 µL/min/mg | CC(C)OC(=O)[C@@H](C)NP(=O)(OC[C@H]1OC[C@@H](n2ccc(N)nc2=O)O1)Oc1ccccc1 (single isomer, unassigned; dia-1) [17 dia-1] | 50000 nM | 50000 nM | – | – |
| 25 µL/min/mg | 61 µL/min/mg | C[C@H](NP(=O)(OC[C@H]1OC[C@@H](n2ccc(N)nc2=O)O1)Oc1cccc2ccccc12)C(=O)OC1CCCCC1 (single isomer, unassigned; dia-2) [6 dia-2] | 48 nM | 316 nM | – | – |
| – | – | CC[C@@H](C)OC(=O)[C@H](C)NP(=O)(OC[C@H]1OC[C@@H](n2cc(F)c(N)nc2=O)O1)Oc1ccccc1 (single isomer, unassigned) [32 dia-2] | – | – | 8 µL/min/mg | 27 µL/min/mg |
| 13 µL/min/mg | 31 µL/min/mg | CC(C)OC(=O)[C@H](C)NP(=O)(OC[C@H]1OC[C@@H](n2ccc(N)nc2=O)O1)Oc1cccc2ccccc12 (single isomer, unassigned; dia-2) [5 dia-2] | 114 nM | 602 nM | – | – |
| 21 µL/min/mg | 32 µL/min/mg | CC(C)OC(=O)[C@H](C)NP(=O)(OC[C@H]1OC[C@@H](n2ccc(N)nc2=O)O1)Oc1cccc2ccccc12 (single isomer, unassigned; dia-1) [5 dia-1] | 107 nM | 465 nM | – | – |
| 27 µL/min/mg | 85 µL/min/mg | CCCC(CCC)COC(=O)C(Cc1ccccc1)NP(=O)(OCC1OCC(n2ccc(N)nc2=O)O1)Oc1ccccc1 (mixture of isomers) [13 diamix 4:1] | 163 nM | 663 nM | – | – |
| 26 µL/min/mg | 19 µL/min/mg | C[C@H](NP(=O)(OC[C@H]1OC[C@@H](n2ccc(N)nc2=O)O1)Oc1ccccc1)C(=O)OCc1ccccc1 (single isomer, unassigned; dia-1) [19 dia-1] | 18 nM | 91 nM | – | – |
| 20 µL/min/mg | 300 µL/min/mg | CCCC(CCC)COC(=O)[C@H](C)NP(=O)(OC[C@H]1OC[C@@H](n2ccc(N)nc2=O)O1)Oc1ccc(Br)cc1 (single isomer, unassigned; dia-2) [23 dia-2] | – | – | – | – |
| 34 µL/min/mg | 43 µL/min/mg | C[C@H](NP(=O)(OC[C@H]1OC[C@@H](n2ccc(N)nc2=O)O1)Oc1cccc2ccccc12)C(=O)OC1CCCC1 (single isomer, unassigned; dia-2) [22 dia-2] | 11 nM | 40 nM | – | – |
| 21 µL/min/mg | 45 µL/min/mg | CCC[C@H](C)OC(=O)[C@H](C)NP(=O)(OC[C@H]1OC[C@@H](n2ccc(N)nc2=O)O1)Oc1ccccc1 (single isomer, unassigned; dia-1) [20 dia-1] | 74 nM | 216 nM | – | – |
| – | 6 µL/min/mg | CC(C)OC(=O)[C@@H](C)NP(=O)(OC[C@H]1OC[C@@H](n2ccc(N)nc2=O)O1)Oc1ccccc1 (single isomer, unassigned; dia-2) [17 dia-2] | – | 50000 nM | – | – |
| 27 µL/min/mg | 180 µL/min/mg | CC[C@@H](C)OC(=O)[C@H](C)NP(=O)(OC[C@H]1OC[C@@H](n2ccc(N)nc2=O)O1)Oc1cccc(C2CCC2)c1 (single isomer, unassigned; dia-1) [33 dia-1] | – | – | – | – |
| – | – | CCCC(CCC)COC(=O)[C@H](C)NP(=O)(OC[C@H]1OC[C@@H](n2ccc(N)nc2=O)O1)Oc1ccccc1 (single isomer, unassigned; dia-1) [8 dia-1] | 7 nM | 123 nM | – | – |

| Compound | CLint Intestinal S9 [1] | CLint Liver S9 [2] | CC50 (HepG2) | CC50 (Huh7) | microsomal CLint at 5 μM [1] | microsomal CLint at 5 μM [2] |
| --- | --- | --- | --- | --- | --- | --- |
| CC[C@H](C)OC(=O)[C@H](C)NP(=O)(OC[C@H]1OC[C@@H](n2ccc(N)nc2=O)O1)Oc1ccccc1 (single isomer, unassigned) [31 dia-2] | 6 µL/min/mg | – | – | – | – | 8 µL/min/mg |
